The record followed here is patent US12599672B2, “KRAS proteolysis targeting chimeras” (PAQ Therapeutics Inc., priority 2023, dated 2026).

Each structure is given as a SMILES string. A value given as a limit tells only on which side of the number the result lay.

Holding throughout (format): cell-based
The target of one test is T1, KRAS G12D (Homo sapiens, UniProt P01116, G12D).
T1 construct: AsPc-1-KRAS (G12D)-HiBit-KI cell (Pharmaron); host or cells: AsPc-1-KRAS (G12D)-HiBit-KI cells (HiBiT knock-in at the endogenous KRAS locus)
In words: KRAS G12D HiBit assay. The note with it: AsPc-1-KRAS (G12D)-HiBit-KI cell, compound treatment for 24 hours; for DC50: absolute DC50. In short, it runs like this: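 HiBiT luminescence, detected by adding lytic buffer, substrate and LgBiT protein, served as the KRAS G12D read-out. Compounds, serially diluted 3-fold over 10 points from 0.3 mM DMSO stock, were on cells for 24 h; percent inhibition normalized to cells given 0.1% DMSO only.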
In general terms: HiBiT is a short tag that completes a luciferase, so light tracks the accessible tagged protein.

The target of a further test is T2, KRAS G12V (Homo sapiens, UniProt P01116, G12V).
T2 construct: SW620-KRAS (G12V)-HiBit-KI cell (Pharmaron); host or cells: SW620-KRAS (G12V)-HiBit-KI cells (HiBiT knock-in at the endogenous KRAS locus)
The experiment in a line: KRAS G12V HiBit assay. The note with it: SW620-KRAS (G12V)-HiBit-KI cells, compound treatment for 24 hours. Put shortly:
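Luminescence from lytic Nano-Glo HiBiT detection with LgBiT read KRAS G12V levels after 24 h compound exposure. Dilutions were 10-point, 3-fold, from a 0.3 mM DMSO stock. Degradation activity was normalised to cells given 0.1% DMSO alone.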

In another test the target is T3, KRAS (Homo sapiens, UniProt P01116).
T3 construct: endogenous in cells; host or cells: KE39 (KRAS amplified) cells
The experiment in a line: KRASamp MSD assay. The note with it: KE39 (KRAS amplified) cells, treated with test compounds for 24 hr, MSD readout of KRAS degradation. Put shortly: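 Degradation DC50 derived by curve fitting, with KRAS levels quantified by MSD electrochemiluminescence (capture/detection antibodies, recombinant WT KRAS standard). Lysates prepared from KE39 cells (KRAS amplified) exposed to test compounds for 24 hr.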

The mark [1] stands for this setting: numeric bounds given in place of class symbols.

T3 sequence (P01116 1-188 isoform P01116-2): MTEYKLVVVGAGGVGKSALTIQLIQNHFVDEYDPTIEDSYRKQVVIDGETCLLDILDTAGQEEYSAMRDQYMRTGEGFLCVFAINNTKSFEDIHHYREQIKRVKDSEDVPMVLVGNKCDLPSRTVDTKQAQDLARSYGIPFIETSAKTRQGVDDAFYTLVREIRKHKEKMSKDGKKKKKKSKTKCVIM
T1 sequence (P01116 1-188 isoform P01116-2 G12D): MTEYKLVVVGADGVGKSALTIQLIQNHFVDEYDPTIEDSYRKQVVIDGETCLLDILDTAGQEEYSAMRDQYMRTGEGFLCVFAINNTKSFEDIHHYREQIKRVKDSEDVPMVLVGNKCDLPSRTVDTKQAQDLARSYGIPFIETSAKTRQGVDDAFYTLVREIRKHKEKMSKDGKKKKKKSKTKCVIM
T2 sequence (P01116 1-188 isoform P01116-2 G12V): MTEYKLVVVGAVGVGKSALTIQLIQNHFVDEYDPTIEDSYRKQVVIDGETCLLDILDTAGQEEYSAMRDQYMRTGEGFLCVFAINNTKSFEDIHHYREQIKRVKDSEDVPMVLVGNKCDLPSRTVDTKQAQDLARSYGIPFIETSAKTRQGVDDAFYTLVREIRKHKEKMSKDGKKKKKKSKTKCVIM

As to `C#Cc1c(F)ccc2cccc(-c3ncc4c(N5CCC[C@@](C)(O)C5)nc(OC[C@@]56CCCN5[C@H](COC(=O)N5CCC(CN7CCC(c8cccc9c8n(C)c(=O)n9C8CCC(=O)NC8=O)CC7)CC5)CC6)nc4c3F)c12` (stereo partly shown) [Compound 137], the DC50 at KRAS G12D (class symbols) was 100 to 300 nM; on KRAS G12V (numeric bounds), more than 75.7 nM; on KRAS, 1 to 10 nM.

For the molecule `CCc1c(F)ccc2cc(O)cc(-c3ncc4c(N5CC6CC6C5)nc(OC[C@@]56CCCN5[C@H](COC(=O)N5CCC7(CC5)CC(N5CCC(c8ccc9c(c8)n(C)c(=O)n9C8CCC(=O)NC8=O)CC5)C7)CC6)nc4c3F)c12` (stereo partly drawn) [Compound 346, ((3S,7aS)-7a-(((4-(3-azabicyclo[3.1.0]hexan-3-yl)-7-(8-ethyl-7-fluoro-3-hydroxynaphthalen-1-yl)-8-fluoropyrido[4,3-d]pyrimidin-2-yl)oxy)methyl)hexahydro-1H-pyrrolizin-3-yl)methyl 2-(4-(1-(2,6-dioxopiperidin-3-yl)-3-methyl-2-oxo-2,3-dihydro-1H-benzo[d]imidazol-5-yl)piperidin-1-yl)-7-azaspiro[3.5]nonane-7-carboxylate], the DC50 on KRAS G12D (class symbols) is less than 100 nM; at KRAS G12V (class symbols), 10 to 100 nM; at KRAS, 1 to 10 nM.

Turning to `CCc1c(F)ccc2cc(O)cc(-c3ncc4c(N5CCC[C@@](C)(O)C5)nc(OC[C@]56CCCN5[C@H](COC(=O)N5CCC(c7cccc8c7n(C)c(=O)n8C7CCC(=O)NC7=O)CC5)CC6)nc4c3F)c12` (stereo partly drawn) [Compound 310, ((3S,7aR)-7a-(((7-(8-ethyl-7-fluoro-3-hydroxynaphthalen-1-yl)-8-fluoro-4-((R)-3-hydroxy-3-methylpiperidin-1-yl)pyrido[4,3-d]pyrimidin-2-yl)oxy)methyl)hexahydro-1H-pyrrolizin-3-yl)methyl 4-(1-(2,6-dioxopiperidin-3-yl)-3-methyl-2-oxo-2,3-dihydro-1H-benzo[d]imidazol-4-yl)piperidine-1-carboxylate], the DC50 on KRAS G12D (setting [1]) is more than 100 nM; at KRAS G12V (class symbols), more than 100 nM; at KRAS it was 1 to 10 nM.

On to `CCc1c(F)ccc2cc(O)cc(-c3ncc4c(N5CCC[C@@](C)(O)C5)nc(OC[C@@]56CCCN5[C@H](COc5ccc(CN7CCC(c8ccc9c(c8)n(C)c(=O)n9C8CCC(=O)NC8=O)CC7)cc5)CC6)nc4c3F)c12` (stereo partly drawn) [Compound 458, 3-(5-(1-(4-(((3S,7aS)-7a-(((7-(8-ethyl-7-fluoro-3-hydroxynaphthalen-1-yl)-8-fluoro-4-((R)-3-hydroxy-3-methylpiperidin-1-yl)pyrido[4,3-d]pyrimidin-2-yl)oxy)methyl)hexahydro-1H-pyrrolizin-3-yl)methoxy)benzyl)piperidin-4-yl)-3-methyl-2-oxo-2,3-dihydro-1H-benzo[d]imidazol-1-yl)piperidine-2,6-dione], for which the DC50 is less than 100 nM on KRAS G12D (class symbols), 10 to 100 nM at KRAS G12V (class symbols) and less than 1 nM at KRAS.

As to `CCc1c(F)ccc2cc(O)cc(-c3ncc4c(N5CCC[C@@](C)(O)C5)nc(OC[C@@]56CCCN5[C@H](COC(=O)N5CCC(CN7CCC(c8cccc9c8n(C)c(=O)n9C8CCC(=O)NC8=O)CC7)CC5)CC6)nc4c3F)c12` (stereo partly drawn) [Compound 440, ((3S,7aS)-7a-(((7-(8-ethyl-7-fluoro-3-hydroxynaphthalen-1-yl)-8-fluoro-4-((R)-3-hydroxy-3-methylpiperidin-1-yl)pyrido[4,3-d]pyrimidin-2-yl)oxy)methyl)hexahydro-1H-pyrrolizin-3-yl)methyl 4-((4-(1-(2,6-dioxopiperidin-3-yl)-3-methyl-2-oxo-2,3-dihydro-1H-benzo[d]imidazol-4-yl)piperidin-1-yl)methyl)piperidine-1-carboxylate], the DC50 at KRAS G12D (class symbols) was less than 100 nM; on KRAS G12V (class symbols) it was less than 10 nM; on KRAS it was 1 to 10 nM.

Consider `CCc1c(F)ccc2cc(O)cc(-c3ncc4c(N5CCC[C@@](C)(O)C5)nc(OC[C@@]56CCCN5[C@H](COC(=O)N5CCC(N7CCC(Cc8ccc9c(c8)n(C)c(=O)n9C8CCC(=O)NC8=O)CC7)CC5)CC6)nc4c3F)c12` (stereo partly drawn) [Compound 430, ((3S,7aS)-7a-(((7-(8-ethyl-7-fluoro-3-hydroxynaphthalen-1-yl)-8-fluoro-4-((R)-3-hydroxy-3-methylpiperidin-1-yl)pyrido[4,3-d]pyrimidin-2-yl)oxy)methyl)hexahydro-1H-pyrrolizin-3-yl)methyl 4-((1-(2,6-dioxopiperidin-3-yl)-3-methyl-2-oxo-2,3-dihydro-1H-benzo[d]imidazol-5-yl)methyl)-[1,4′-bipiperidine]-1′-carboxylate], for which the values for the DC50 on KRAS G12D (class symbols), at KRAS G12V (class symbols) and at KRAS were less than 100 nM, 10 to 100 nM and 1 to 10 nM, respectively.

For the molecule `CCc1c(F)ccc2cc(O)cc(-c3ncc4c(N5CCC[C@@](C)(O)C5)nc(OC[C@@]56CCCN5[C@H](COC(=O)N5CCC(CN7CCN(c8ccc9c(c8)n(C)c(=O)n9C8CCC(=O)NC8=O)CC7)CC5)CC6)nc4c3F)c12` (stereo partly drawn) [Compound 95, [(3S,8S)-8-[[7-(8-ethyl-7-fluoro-3-hydroxy-1-naphthyl)-8-fluoro-4-[(3R)-3-hydroxy-3-methyl-1-piperidyl]pyrido[4,3-d]pyrimidin-2-yl]oxymethyl]-1,2,3,5,6,7-hexahydropyrrolizin-3-yl]methyl4-[[4-[1-(2,6-dioxo-3-piperidyl)-3-methyl-2-oxo-benzimidazol-5-yl]piperazin-1-yl]methyl]piperidine-1-carboxylate], the DC50 on KRAS G12D (class symbols) is less than 100 nM; at KRAS G12V (class symbols) it was less than 10 nM; at KRAS, less than 1 nM. On KRAS G12D (class symbols), this molecule showed a Dmax of more than 50%.

Consider `CCc1c(F)ccc2cc(O)cc(-c3ncc4c(N5CCCCCC5)nc(OC[C@@]56CCCN5[C@H](COC(=O)N5CCC7(CC5)CC(N5CCC(c8ccc9c(c8)n(C)c(=O)n9C8CCC(=O)NC8=O)CC5)C7)CC6)nc4c3F)c12` (stereo partly drawn) [Compound 344, ((3S,7aS)-7a-(((4-(azepan-1-yl)-7-(8-ethyl-7-fluoro-3-hydroxynaphthalen-1-yl)-8-fluoropyrido[4,3-d]pyrimidin-2-yl)oxy)methyl)hexahydro-1H-pyrrolizin-3-yl)methyl 2-(4-(1-(2,6-dioxopiperidin-3-yl)-3-methyl-2-oxo-2,3-dihydro-1H-benzo[d]imidazol-5-yl)piperidin-1-yl)-7-azaspiro[3.5]nonane-7-carboxylate], for which the figures for the DC50 at KRAS G12D (setting [1]), on KRAS G12V (class symbols) and at KRAS were more than 100 nM, more than 100 nM and 1 to 10 nM, respectively.

As for `CCc1c(F)ccc2cc(O)cc(-c3ncc4c(N5CCC[C@@](C)(O)C5)nc(OC[C@]56CCCN5[C@H](COC(=O)N5CCC(CCOc7ccc8c(c7)n(C)c(=O)n8C7CCC(=O)NC7=O)CC5)CC6)nc4c3F)c12` (stereo partly drawn) [Compound 300, ((3S,7aR)-7a-(((7-(8-ethyl-7-fluoro-3-hydroxynaphthalen-1-yl)-8-fluoro-4-((R)-3-hydroxy-3-methylpiperidin-1-yl)pyrido[4,3-d]pyrimidin-2-yl)oxy)methyl)hexahydro-1H-pyrrolizin-3-yl)methyl 4-(2-((1-(2,6-dioxopiperidin-3-yl)-3-methyl-2-oxo-2,3-dihydro-1H-benzo[d]imidazol-5-yl)oxy)ethyl)piperidine-1-carboxylate], the DC50 is less than 100 nM at KRAS G12D (class symbols), less than 10 nM on KRAS G12V (class symbols) and less than 1 nM at KRAS.

As for `C#Cc1c(F)ccc2cc(O)cc(-c3ncc4c(N5CCC[C@@](C)(O)C5)nc(OC[C@@]56CCCN5[C@H](COC(=O)N5CCC7(CCC7N7CCC(c8ccc9c(c8)n(C)c(=O)n9C8CCC(=O)NC8=O)CC7)CC5)CC6)nc4c3F)c12` (stereo partly drawn) [Compound 415, ((3S,7aS)-7a-(((7-(8-ethynyl-7-fluoro-3-hydroxynaphthalen-1-yl)-8-fluoro-4-((R)-3-hydroxy-3-methylpiperidin-1-yl)pyrido[4,3-d]pyrimidin-2-yl)oxy)methyl)hexahydro-1H-pyrrolizin-3-yl)methyl 1-(4-(1-(2,6-dioxopiperidin-3-yl)-3-methyl-2-oxo-2,3-dihydro-1H-benzo[d]imidazol-5-yl)piperidin-1-yl)-7-azaspiro[3.5]nonane-7-carboxylate], the figures for the DC50 at KRAS G12D (class symbols), at KRAS G12V (class symbols) and at KRAS were less than 100 nM, more than 100 nM and not below 10 nM, respectively.

Regarding `C#Cc1c(F)ccc2cc(O)cc(-c3ncc4c(N5CCC[C@@](C)(O)C5)nc(OC[C@@]56CCCN5[C@H](COC(=O)N5CCC7(CCC7CN7CCC(c8ccc9c(c8)n(C)c(=O)n9C8CCC(=O)NC8=O)CC7)CC5)CC6)nc4c3F)c12` (stereo partly drawn) [Compound 327, ((3S,7aS)-7a-(((7-(8-ethynyl-7-fluoro-3-hydroxynaphthalen-1-yl)-8-fluoro-4-((R)-3-hydroxy-3-methylpiperidin-1-yl)pyrido[4,3-d]pyrimidin-2-yl)oxy)methyl)hexahydro-1H-pyrrolizin-3-yl)methyl 1-((4-(1-(2,6-dioxopiperidin-3-yl)-3-methyl-2-oxo-2,3-dihydro-1H-benzo[d]imidazol-5-yl)piperidin-1-yl)methyl)-7-azaspiro[3.5]nonane-7-carboxylate], the DC50 at KRAS G12D (class symbols) was less than 100 nM; on KRAS G12V (class symbols), more than 100 nM; at KRAS it was not below 10 nM.
